Legend:
[1] = target: T1, Kinesin-like protein KIF11 (Homo sapiens, UniProt P52732); assay: Inhibition of human kinesin spindle protein by endpoint assay
T1 sequence (P52732 whole entry): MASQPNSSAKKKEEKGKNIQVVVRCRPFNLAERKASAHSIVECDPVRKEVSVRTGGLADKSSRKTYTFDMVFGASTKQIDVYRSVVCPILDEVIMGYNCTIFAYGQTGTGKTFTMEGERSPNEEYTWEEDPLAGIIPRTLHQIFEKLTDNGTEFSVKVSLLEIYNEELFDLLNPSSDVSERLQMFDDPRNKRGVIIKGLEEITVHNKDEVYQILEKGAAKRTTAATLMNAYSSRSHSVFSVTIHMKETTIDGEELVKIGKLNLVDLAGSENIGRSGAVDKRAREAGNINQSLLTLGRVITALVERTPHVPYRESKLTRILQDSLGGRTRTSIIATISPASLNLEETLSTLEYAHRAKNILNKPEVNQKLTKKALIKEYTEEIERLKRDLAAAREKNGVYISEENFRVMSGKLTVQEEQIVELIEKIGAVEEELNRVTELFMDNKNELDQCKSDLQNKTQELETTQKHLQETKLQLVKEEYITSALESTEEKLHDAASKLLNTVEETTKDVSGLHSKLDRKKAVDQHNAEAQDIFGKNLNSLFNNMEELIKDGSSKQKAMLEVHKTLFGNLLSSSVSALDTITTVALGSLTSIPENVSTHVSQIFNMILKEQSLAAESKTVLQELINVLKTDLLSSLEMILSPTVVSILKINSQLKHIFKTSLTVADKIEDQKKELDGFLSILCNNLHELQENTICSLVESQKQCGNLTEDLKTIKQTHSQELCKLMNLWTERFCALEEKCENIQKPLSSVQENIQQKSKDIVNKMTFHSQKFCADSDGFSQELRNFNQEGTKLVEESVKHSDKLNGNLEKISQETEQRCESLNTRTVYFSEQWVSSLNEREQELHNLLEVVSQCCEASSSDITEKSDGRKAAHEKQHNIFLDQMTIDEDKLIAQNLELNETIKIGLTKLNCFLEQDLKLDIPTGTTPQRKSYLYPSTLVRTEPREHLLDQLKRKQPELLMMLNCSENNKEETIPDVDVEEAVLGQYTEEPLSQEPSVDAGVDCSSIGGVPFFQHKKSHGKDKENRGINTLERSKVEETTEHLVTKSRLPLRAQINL

[2] = target: T2, Kinesin heavy chain isoform 5A (Homo sapiens, UniProt Q12840); assay: Inhibition of nKHC
T2 sequence (Q12840 whole entry): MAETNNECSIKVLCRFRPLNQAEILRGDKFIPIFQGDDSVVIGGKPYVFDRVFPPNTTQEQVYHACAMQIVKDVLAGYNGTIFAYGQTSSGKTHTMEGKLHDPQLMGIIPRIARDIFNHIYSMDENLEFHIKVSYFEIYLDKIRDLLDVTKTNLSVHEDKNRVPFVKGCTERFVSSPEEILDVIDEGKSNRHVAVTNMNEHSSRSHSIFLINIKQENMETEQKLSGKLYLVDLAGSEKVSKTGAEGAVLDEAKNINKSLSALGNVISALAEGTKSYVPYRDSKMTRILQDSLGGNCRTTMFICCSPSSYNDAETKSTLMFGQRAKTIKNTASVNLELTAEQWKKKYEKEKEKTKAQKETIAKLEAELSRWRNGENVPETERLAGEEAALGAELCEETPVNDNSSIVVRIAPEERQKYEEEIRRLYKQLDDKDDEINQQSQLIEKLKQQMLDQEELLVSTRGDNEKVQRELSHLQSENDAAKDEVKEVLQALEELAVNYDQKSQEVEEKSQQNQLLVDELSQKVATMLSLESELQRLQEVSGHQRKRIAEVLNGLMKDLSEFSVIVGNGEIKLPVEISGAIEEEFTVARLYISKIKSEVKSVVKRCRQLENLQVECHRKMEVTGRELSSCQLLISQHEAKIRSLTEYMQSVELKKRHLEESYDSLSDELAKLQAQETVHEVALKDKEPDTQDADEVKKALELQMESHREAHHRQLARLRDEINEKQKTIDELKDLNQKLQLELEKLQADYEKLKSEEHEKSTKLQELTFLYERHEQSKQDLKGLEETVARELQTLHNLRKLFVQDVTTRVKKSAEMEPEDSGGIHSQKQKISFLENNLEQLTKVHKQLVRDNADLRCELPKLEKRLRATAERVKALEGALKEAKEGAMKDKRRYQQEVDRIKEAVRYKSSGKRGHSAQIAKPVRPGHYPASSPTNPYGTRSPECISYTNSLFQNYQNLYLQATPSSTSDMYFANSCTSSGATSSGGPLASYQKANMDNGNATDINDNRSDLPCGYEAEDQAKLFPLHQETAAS

[3] = target: T3, Kinesin-like protein KIF3B (Homo sapiens, UniProt O15066); assay: Inhibition of Kif3B
T3 sequence (O15066 whole entry): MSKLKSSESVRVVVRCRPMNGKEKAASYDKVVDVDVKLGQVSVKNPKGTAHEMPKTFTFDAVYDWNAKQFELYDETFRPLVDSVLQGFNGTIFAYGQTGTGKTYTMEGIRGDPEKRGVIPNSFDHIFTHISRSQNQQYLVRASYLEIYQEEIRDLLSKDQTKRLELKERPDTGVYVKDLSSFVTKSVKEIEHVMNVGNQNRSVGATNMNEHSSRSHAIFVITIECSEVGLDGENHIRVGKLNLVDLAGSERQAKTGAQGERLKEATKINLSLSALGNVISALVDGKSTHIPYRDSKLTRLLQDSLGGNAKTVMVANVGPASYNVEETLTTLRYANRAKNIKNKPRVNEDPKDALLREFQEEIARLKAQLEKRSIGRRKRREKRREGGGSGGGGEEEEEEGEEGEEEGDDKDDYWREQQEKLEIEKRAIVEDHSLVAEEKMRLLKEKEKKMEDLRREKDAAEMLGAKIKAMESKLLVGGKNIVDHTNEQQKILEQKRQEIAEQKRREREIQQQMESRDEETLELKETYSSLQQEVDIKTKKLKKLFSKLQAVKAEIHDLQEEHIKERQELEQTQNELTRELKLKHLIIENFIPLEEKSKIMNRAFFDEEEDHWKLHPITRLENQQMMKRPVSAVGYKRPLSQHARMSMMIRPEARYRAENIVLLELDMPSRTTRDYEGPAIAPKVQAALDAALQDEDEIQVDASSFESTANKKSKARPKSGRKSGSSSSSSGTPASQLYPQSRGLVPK

[4] = target: Kinesin-like protein KIF11 (Homo sapiens) (UniProt P52732); assay: Selectivity for human KSP over HSET

| Compound | IC50 [1] [µM] | IC50 [2] [µM] | IC50 [3] [µM] | fold change (FC) [4] |
| --- | --- | --- | --- | --- |
| COc1ccccc1NC(=O)c1ccc2c(c1)nc(Nc1ccc(S(N)(=O)=O)cc1)n2Cc1ccccc1C(F)(F)F | 2.4 | > 50 | > 50 | – |
| CSc1ccc(Cc2nc3cc(C(=O)O)ccc3n2Cc2ccccc2C(F)(F)F)cc1 | > 20 | – | – | – |
| COc1ccccc1Cn1c(Nc2ccc(S(N)(=O)=O)cc2)nc2cc(C(N)=O)ccc21 | 20 | > 50 | > 50 | – |
| Cc1ccc(CNc2nc3cc(C(=O)O)ccc3n2Cc2ccccc2C(F)(F)F)cc1 | > 20 | > 50 | > 50 | – |
| NC(=O)c1cc2nc(Nc3ccc(S(N)(=O)=O)cc3)n(Cc3ccccc3C(F)(F)F)c2cc1F | 7.9 | – | – | – |
| NC(=O)c1cc2c(cc1F)nc(Nc1ccc(S(N)(=O)=O)cc1)n2Cc1ccccc1C(F)(F)F | > 20 | – | – | – |
| COC(=O)c1ccc2c(c1)nc(Nc1ccc(S(N)(=O)=O)cc1)n2Cc1ccccc1C(F)(F)F | 2.2 | > 50 | > 50 | – |
| NS(=O)(=O)c1ccc(Nc2nc3cc(C(=O)O)ccc3n2Cc2ccccc2C(F)(F)F)cc1 | > 20 | > 50 | > 50 | – |
| NC(=O)c1ccc2c(c1)nc(Nc1ccc(S(N)(=O)=O)cc1)n2C1(c2ccccc2)CC1 | > 20 | > 50 | > 50 | – |
| CS(=O)(=O)c1ccc(Nc2nc3cc(C(=O)O)ccc3n2Cc2ccccc2C(F)(F)F)cc1 | 6.9 | > 50 | > 50 | 7 |
| NC(=O)c1ccc2c(c1)nc(Nc1ccc(S(N)(=O)=O)cc1)n2Cc1csc2ccc(Cl)cc12 | 19 | > 50 | > 50 | – |
| COc1cccc(Cn2c(Nc3ccc(S(N)(=O)=O)cc3)nc3cc(C(N)=O)ccc32)c1OC | 5 | > 50 | > 50 | – |
| COc1ccc(CNc2nc3cc(C(=O)O)ccc3n2Cc2ccccc2C(F)(F)F)cc1 | > 20 | > 50 | > 50 | – |
| CNC(=O)c1ccc2c(c1)nc(Nc1ccc(S(N)(=O)=O)cc1)n2Cc1ccccc1C(F)(F)F | 9.2 | > 50 | > 50 | – |
| NC(=O)c1ccc2c(c1)nc(Nc1ccc(S(N)(=O)=O)cc1)n2Cc1ccccn1 | > 20 | > 50 | > 50 | – |
| NS(=O)(=O)c1ccc(Nc2nc3cc(C(=O)N4CCCC4)ccc3n2Cc2ccccc2C(F)(F)F)cc1 | > 20 | > 50 | > 50 | – |
| CC(c1ccccc1C(F)(F)F)n1c(Nc2ccc(S(N)(=O)=O)cc2)nc2cc(C(N)=O)ccc21 (centres undefined) | > 20 | > 50 | > 50 | – |
| O=C(O)c1ccc2c(c1)nc(NCCN1CCOCC1)n2Cc1ccccc1C(F)(F)F | > 20 | > 50 | > 50 | – |

| Compound | IC50 [1] [µM] | IC50 [2] [µM] | IC50 [3] [µM] | fold change (FC) [4] |
| --- | --- | --- | --- | --- |
| COc1ccc(Nc2nc3cc(C(=O)O)ccc3n2Cc2ccccc2C(F)(F)F)cc1F | 2.3 | > 50 | > 50 | – |
| NC(=O)c1ccc2c(c1)nc(Nc1ccc(S(N)(=O)=O)cc1)n2Cc1ccccc1C(F)(F)F | 7.4 | > 50 | > 50 | 5 |
| NC(=O)c1ccc2c(c1)nc(Nc1ccc(S(N)(=O)=O)cc1)n2Cc1nc2ccccc2s1 | > 20 | > 50 | > 50 | – |
| CN(C)C(=O)c1ccc2c(c1)nc(Nc1ccc(S(N)(=O)=O)cc1)n2Cc1ccccc1C(F)(F)F | 16.3 | > 50 | > 50 | – |
| COC(=O)c1ccc2c(c1)nc(Nc1ccc(OC)cc1)n2Cc1ccccc1C(F)(F)F | 13.4 | > 50 | > 50 | – |
| NS(=O)(=O)c1ccc(CNc2nc3cc(C(=O)O)ccc3n2Cc2ccccc2C(F)(F)F)cc1 | > 20 | > 50 | > 50 | – |
| NC(=O)c1ccc2c(c1)nc(Nc1ccc(S(N)(=O)=O)cc1)n2Cc1csc2ccccc12 | 2.1 | > 50 | > 50 | > 24 |
| COc1ccc(Nc2nc3cc(C(=O)Nc4ccccc4OC)ccc3n2Cc2ccccc2C(F)(F)F)cc1 | 6 | > 50 | > 50 | – |
| CSc1ccc(Nc2nc3cc(C(=O)O)ccc3n2Cc2ccccc2C(F)(F)F)cc1 | 1.4 | > 50 | > 50 | – |
| COc1ccc(Nc2nc3cc(C(=O)O)ccc3n2Cc2ccccc2C(F)(F)F)cc1 | > 20 | > 50 | > 50 | – |
| NC(=O)c1ccc2nc(Nc3ccc(S(N)(=O)=O)cc3)n(Cc3ccccc3C(F)(F)F)c2c1 | > 20 | – | – | – |
| COc1ccc(Nc2nc3cc(C(N)=O)ccc3n2Cc2ccccc2C(F)(F)F)cc1F | 1.3 | > 50 | > 50 | 11 |
| CS(=O)(=O)c1ccc(CNc2nc3cc(C(=O)O)ccc3n2Cc2ccccc2C(F)(F)F)cc1 | > 20 | > 50 | > 50 | – |
| CNC(=O)c1ccc2c(c1)nc(Nc1ccc(OC)cc1)n2Cc1ccccc1C(F)(F)F | 5.2 | > 50 | > 50 | – |
| COc1ccc(Cc2nc3cc(C(=O)O)ccc3n2Cc2ccccc2C(F)(F)F)cc1 | > 20 | – | – | – |
| COC(=O)c1ccc2c(c1)nc(Nc1ccc(SC)cc1)n2Cc1ccccc1C(F)(F)F | 33.4 | > 50 | > 50 | – |
| NC1CCN(c2nc3cc(C(=O)O)ccc3n2Cc2ccccc2C(F)(F)F)C1 (centres undefined) | > 20 | > 50 | > 50 | – |

From ChEMBL document CHEMBL1158447, “Substituted benzimidazoles: A novel chemotype for small molecule hKSP inhibitors” (Bioorg Med Chem Lett, 2009)
